Measurements as given in article PMC12910498 (ACS pharmacology & translational science, 2026).
“And” between values parts separate entries of the source, which are not always exact repeats. Equal entries are not always repeated. Where two headings read alike, the source gives them in different places.

Experiments:
[1] = Phase I metabolic stability in rat liver microsomes (with NADPH); format: in vitro ADME; conditions: pH 7.4, presence of NADPH, mean ± SD, n = 3
Description: (§1) We evaluated the Phase I metabolic stability of compounds 2−7 and 14−19 using rat and human liver microsomes, as previously described.[45]
(§2) Phase I metabolic stability assays were conducted using rat and human liver microsomes as previously described[45],[70] with minor modifications. In brief, the reactions were carried out with 100 mM potassium phosphate buffer, pH 7.4, in the presence of NADPH regenerating system (1.3 mM NADPH, 3.3 mM glucose 6-phosphate, 3.3 mM MgCl2, 0.4 U/mL glucose-6-phosphate dehydrogenase, 50 μM sodium citrate). Negative controls without cofactors were assessed to determine the non-CYP-mediated metabolism. Compound disappearance was monitored over time using a liquid chromatography and tandem mass spectrometry (LC/MS) method. All reactions were performed in triplicate.
(§3) Chromatographic analysis was performed on a Dionex ultra high-performance LC system coupled with Q Exactive Focus orbitrap mass spectrometer (Thermo Fisher Scientific Inc., Waltham MA). Separation was achieved using Agilent Eclipse Plus column (100 × 2.1 mm^2 i.d.; maintained at 35 °C) packed with a 1.8 μm C18 stationary phase. […] The total run time for each analyte was 6.5 min. Pumps were operated at a flow rate of 0.3 mL/min. The mass spectrometer controlled by Xcalibur software 4.0.27.13 (Thermo Scientific) was operated with a HESI ion source in positive ionization mode. Compounds were identified in the full-scan mode (from m/z 50 to 750) by comparing t = 0 samples with t = 30 min and t = 60 min samples.

[2] = Phase I metabolic stability in human liver microsomes (with NADPH); format: in vitro ADME; conditions: pH 7.4, presence of NADPH, mean ± SD, n = 3
Description: as §1, §2, §3

[3] = Pharmacokinetics study in rats (plasma and brain); format: in vivo, Sprague−Dawley rats; conditions: rat, 5 mg/kg IP
Description: Given their adequate in vitro stability profiles, we next evaluated the in vivo pharmacokinetic profiles of 14, 15, 17, and 18 in rats. Sprague−Dawley rats were dosed with 5 mg/kg (14, 15, 17) or 10 mg/kg (18), i.p., and plasma and brain levels of each drug were measured 0−6 h postdose.
All animal experiments were performed following the protocols evaluated and approved by the Animal Care and Use Committee at Johns Hopkins University (Ethics Approval Number: RA24M403). Pharmacokinetic studies in Sprague−Dawley (SD) rats were conducted according to protocols approved. SD rats obtained from Harlan were maintained on a 12 h light−dark cycle with ad libitum access to food and water. Test compound was administered via i.p. injection at a dose of 10 mg/kg (100% saline vehicle, 10 mL/kg volume). The rats were sacrificed at specified time points (0.25, 0.5 h, 1, 2, 4, and 6 h) post drug administration. For the collection of plasma and brain tissue, animals were euthanized with CO2, and blood samples were collected in heparinized microtubes by cardiac puncture. Brains were dissected and immediately flash-frozen (−80 °C). Blood samples were spun at 2000g for 15 min, and plasma was removed and stored at −80 °C until analysis (as described below).
Quantitation of triazole analogs 14, 15, 17, and 18 was performed using liquid chromatography with tandem mass spectrometry (LC/MS-MS) methods. Briefly, calibration standards were prepared using respective tissue (naïve plasma and brain) with additions of the test compounds. For quantifying the test compounds in the pharmacokinetic samples, plasma samples (20 μL) were processed using a single liquid extraction method by addition of 100 μL of acetonitrile containing internal standard (losartan: 0.5 μM), followed by vortex-mixing for 30 s and then centrifugation at 10,000g for 10 min at 4 °C. Brain tissues were diluted 1:5 w/v with acetonitrile containing losartan (0.5 μm) and homogenized, followed by vortex-mixing and centrifugation at 10,000g for 10 min at 4 °C. A 50 μL aliquot of the supernatant was diluted with 50 μL of water and transferred to 250 μL polypropylene autosampler vials sealed with Teflon caps. Two μL of the sample was injected into the LC/MS/MS system for analysis. Chromatographic analysis was performed using an Accela ultra high-performance system consisting of an analytical pump and an autosampler coupled with a TSQ Vantage mass spectrometer. […] The mobile phase consisted of 0.1% formic acid in acetonitrile and 0.1% formic acid in water with gradient elution, starting with 10% organic phase (from 0 to 1 min) linearly increasing to 95% (from 1 to 2 min), and re-equilibrating to 10% by 3 min. The total run time for each analyte was 3.5 min. Pumps were operated at a flow rate of 0.4 mL/min. […] Plasma concentrations (nmol/mL) as well as brain tissue concentrations (nmol/g) were determined and plots of mean plasma concentration versus time were constructed. Noncompartmental analysis modules in Phoenix WinNonlin version 7.0 (Certara USA, Inc., Princeton, NJ) were used to quantify exposures (AUC0−t) and half-life (t1/2).

[4] = target: T1, D1 (Homo sapiens, UniProt P21728); test: PDSP primary screen and secondary assay, D1; format: binding; conditions: 10 µM compound
T1 construct: Psychoactive Drug Screening Program (PDSP)
Text: (§4) Receptor Primary Secondary Primary Secondary Primary Secondary Primary Secondary screen assay screen assay screen assay screen assay […]
(§5) inhibition in primary assessment.

[5] = target: T2, D5 (Homo sapiens, UniProt P21918); test: PDSP primary screen, D5; format: binding; conditions: 10 µM compound
T2 construct: Psychoactive Drug Screening Program (PDSP)
Text: as §4, §5

[6] = target: human D2LR (Homo sapiens, UniProt P14416); test: biochemical
[7] = target: T3, human D3R (Homo sapiens, UniProt P35462); test: biochemical
[8] = target: T4, human D4R (Homo sapiens, UniProt P21917); test: DiscoverX PathHunter β-arrestin recruitment assay, D4R
T4 sequence (P21917 1-419): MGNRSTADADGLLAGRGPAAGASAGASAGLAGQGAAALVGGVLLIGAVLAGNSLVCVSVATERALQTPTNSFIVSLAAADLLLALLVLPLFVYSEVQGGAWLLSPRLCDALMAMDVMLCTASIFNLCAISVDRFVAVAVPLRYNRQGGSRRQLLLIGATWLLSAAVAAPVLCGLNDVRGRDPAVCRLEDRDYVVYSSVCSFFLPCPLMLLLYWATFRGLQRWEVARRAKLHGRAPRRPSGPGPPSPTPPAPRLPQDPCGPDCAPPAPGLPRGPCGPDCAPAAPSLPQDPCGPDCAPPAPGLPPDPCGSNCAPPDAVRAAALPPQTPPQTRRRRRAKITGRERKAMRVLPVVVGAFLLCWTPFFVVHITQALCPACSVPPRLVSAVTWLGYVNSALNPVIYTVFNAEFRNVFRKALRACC

[9] = target: T4, human D4R; test: [3H]N-methylspiperone radioligand competition binding, hD4R membranes
[10] = target: T4, human D4R; conditions: for D4R Ant. (%): cAMP, antagonist mode, 10 μM forskolin and 10 nM dopamine, normalized to spiperone; for Emax: read-out: D4R Emax (%)
[11] = target: human D2R long isoform (Homo sapiens, UniProt P14416); set-up: host or cells: CHO-K1; method as in PMID 30883109; conditions: antagonist mode; previously reported; cited from earlier work
[12] = target: T4, human D4R; set-up: host or cells: CHO-K1; method as in PMID 30883109; conditions: previously reported, cited from earlier work; for D4R Emax (%): agonist mode; for D4R Ant. (%): antagonist mode
[13] = target: T3, human D3R; set-up: host or cells: CHO-K1; method as in PMID 30883109; conditions: previously reported, cited from earlier work
[14] = target: T3, human D3R; set-up: expressed in transfected cells; host or cells: HEK293; method as in PMID 30883109; conditions: HEK293 membranes, hD3R; previously reported; read-out: Ki (nM) ± SEM [3H]N-methlyspiperone D3R; cited from earlier work
[15] = Non-Phase I metabolic stability in human liver microsomes (absence of NADPH); format: in vitro ADME
Description: We also evaluated the non-Phase I metabolic stability of compounds 2−7 and 14−19 using rat and human liver microsomes. […] This may represent metabolism by hydrolases that can specifically attack the amide. Evidence in support of this hypothesis is shown by the remarkable stability of all triazole analogs (14−19) in the absence of NADPH in Figure 5B,D.
as §2
Chromatographic analysis was performed on a Dionex ultra high-performance LC system coupled with Q Exactive Focus orbitrap mass spectrometer (Thermo Fisher Scientific Inc., Waltham MA). Separation was achieved using Agilent Eclipse Plus column (100 × 2.1 mm^2 i.d.; maintained at 35 °C) packed with a 1.8 μm C18 stationary phase. […] The total run time for each analyte was 6.5 min. […]

Chain of human D2R long isoform (P14416 whole entry, canonical isoform): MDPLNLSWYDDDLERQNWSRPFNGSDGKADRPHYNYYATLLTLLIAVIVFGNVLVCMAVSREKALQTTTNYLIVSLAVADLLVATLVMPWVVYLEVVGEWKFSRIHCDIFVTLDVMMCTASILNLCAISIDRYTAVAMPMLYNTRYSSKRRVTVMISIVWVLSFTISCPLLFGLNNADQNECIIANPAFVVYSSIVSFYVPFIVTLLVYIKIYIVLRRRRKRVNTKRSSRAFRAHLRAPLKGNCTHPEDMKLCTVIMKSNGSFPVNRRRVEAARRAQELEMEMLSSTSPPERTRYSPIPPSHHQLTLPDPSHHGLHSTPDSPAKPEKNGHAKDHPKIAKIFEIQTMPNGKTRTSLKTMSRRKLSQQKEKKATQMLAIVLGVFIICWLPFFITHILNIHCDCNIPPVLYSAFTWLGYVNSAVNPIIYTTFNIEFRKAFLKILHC
T3 sequence (P35462 whole entry): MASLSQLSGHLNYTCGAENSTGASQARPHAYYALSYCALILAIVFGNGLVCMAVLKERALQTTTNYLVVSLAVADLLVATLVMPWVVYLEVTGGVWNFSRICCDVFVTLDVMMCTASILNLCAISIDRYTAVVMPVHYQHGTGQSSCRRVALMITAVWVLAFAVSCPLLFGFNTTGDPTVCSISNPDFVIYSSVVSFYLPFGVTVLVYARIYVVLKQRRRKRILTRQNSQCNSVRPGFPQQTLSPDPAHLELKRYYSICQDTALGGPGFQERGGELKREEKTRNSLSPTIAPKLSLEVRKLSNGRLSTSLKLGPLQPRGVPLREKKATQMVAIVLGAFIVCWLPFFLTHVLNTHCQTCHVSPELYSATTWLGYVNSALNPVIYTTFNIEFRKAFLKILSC
T1 sequence (P21728 whole entry): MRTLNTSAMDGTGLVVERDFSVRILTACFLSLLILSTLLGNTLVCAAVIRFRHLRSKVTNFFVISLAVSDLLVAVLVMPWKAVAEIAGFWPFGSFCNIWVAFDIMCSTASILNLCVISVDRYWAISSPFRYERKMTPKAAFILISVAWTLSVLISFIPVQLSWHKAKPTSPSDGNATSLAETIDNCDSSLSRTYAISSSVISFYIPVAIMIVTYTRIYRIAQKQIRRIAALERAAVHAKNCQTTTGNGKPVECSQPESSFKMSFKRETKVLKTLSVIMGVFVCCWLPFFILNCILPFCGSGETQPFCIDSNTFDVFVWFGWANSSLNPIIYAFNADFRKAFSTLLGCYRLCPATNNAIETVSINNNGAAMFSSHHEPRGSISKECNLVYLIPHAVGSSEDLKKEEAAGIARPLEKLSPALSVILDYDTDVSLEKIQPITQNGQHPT
Chain of human D2LR (P14416 whole entry): as the sequence (P14416 whole entry, canonical isoform) above
T2 sequence (P21918 whole entry): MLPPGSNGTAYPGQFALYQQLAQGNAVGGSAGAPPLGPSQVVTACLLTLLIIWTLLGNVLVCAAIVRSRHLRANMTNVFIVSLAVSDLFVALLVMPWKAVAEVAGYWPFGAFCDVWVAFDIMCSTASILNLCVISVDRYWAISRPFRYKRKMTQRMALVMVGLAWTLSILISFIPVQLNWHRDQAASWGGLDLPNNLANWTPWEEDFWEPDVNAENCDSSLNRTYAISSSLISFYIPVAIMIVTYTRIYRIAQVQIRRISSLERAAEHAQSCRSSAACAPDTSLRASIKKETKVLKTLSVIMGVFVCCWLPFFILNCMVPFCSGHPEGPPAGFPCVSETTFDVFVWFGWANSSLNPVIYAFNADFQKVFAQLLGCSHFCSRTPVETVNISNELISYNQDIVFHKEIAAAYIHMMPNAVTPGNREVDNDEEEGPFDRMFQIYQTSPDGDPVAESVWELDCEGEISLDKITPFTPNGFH

SMILES	half-life [1] [min]	half-life [2] [min]	IC50 [10] [nM]	D4R Ant. (%) [10] [%]	D2R Ant (%) [11] [%]	D4R Emax (%) [12] [%]	D4R Ant. (%) [12]	EC50 [10] [nM]	Emax [10] [%]	D3R Emax (%) ([13]; agonist mode)	IC50 ([13]; antagonist mode) [nM]	Ki [14] [nM]	other results
Cc1cccc(-n2cc(CN3CCN(c4ccc(Cl)cn4)CC3)nn2)c1 [Compound 17, 1-(5-Chloropyridin-2-yl)-4-((1-(m-tolyl)-1H-1,2,3-triazol-4-yl)methyl)piperazine]	64.8 ± 2.12	46.8 ± 6.69	134 ± 36.4	85 ± 1									Kp ([3]; Sprague-Dawley, brain and plasma, ip, 5 mg/kg, AUC brain/plasma, read-out: brain: Plasma ratio): 0.3; half-life ([3]; Sprague-Dawley, brain, ip, 5 mg/kg, brain, read-out: half-life (h) brain (converted)): 2.36 h; half-life ([3]; Sprague-Dawley, plasma and brain, ip, 5 mg/kg, tissue not specified, read-out: half-life (converted)): ≥ 2.1 h; half-life ([3]; Sprague-Dawley, plasma, ip, 5 mg/kg, plasma, read-out: half-life (h) plasma (converted)): 2.1 h; Tmax ([3]; Sprague-Dawley, brain, read-out: Tmax (h) brain): 0.25 h; AUC ([3]; Sprague-Dawley, plasma): 15.1 ± 1.83 µM·h; Cmax ([3]; Sprague-Dawley, plasma): 10 ± 1.27 µM; Tmax ([3]; Sprague-Dawley, plasma, read-out: Tmax (h) plasma): 0.25 h; AUC brain ([3]; brain): 4.57 ± 0.50 nmol·h/g; Cmax brain ([3]; brain): 3.04 ± 0.45 nmol/g; peak in vivo brain concentrations expected ([3]; from brain Cmax): greater than 3.0 μM; inhibition at 10 µM [4]: 16.7%; inhibition at 10 µM [5]: 6.22%; Ki [6]: > 100000 nM; Ki [7]: > 100000 nM; IC50 [8]: 3800 ± 720 nM; D4R Ant. (%) ([8]; antagonist mode, EC80 dopamine (1 μM), normalized to spiperone): 91.6 ± 4.7%; Ki [9]: 77.7 ± 19.9 nM; Selectivity D2R/D4R ([9]; ratio of Ki values): >1287; Selectivity D3R/D4R ([9]; ratio of Ki values): >1287
Cc1cccc(NC(=O)CN2CCC(c3ccccc3)CC2)c1 [Compound 5]	1.99 ± 2.82	10.8 ± 0.57	42.4 ± 10.6	47 ± 1	99.7 ± 0.3	14 ± 0.3	93% and 93.3 ± 1.8%	7.54 ± 2.21	42 ± 8				
Cc1cccc(NC(=O)CN2CCN(c3ccccn3)CC2)c1 [Compound 2]	9.92 ± 0.18	67 ± 2.41		16 ± 1		30.7 ± 6.4	78.9 ± 3.1%	2.92 ± 0.15	65 ± 3	49.4 ± 2.0	> 100000	> 10000	
CCc1cccc(NC(=O)CN2CCN(c3ccccn3)CC2)c1 [Compound 3]	20.8 ± 1.99	249 ± 66.5	267 ± 115	30 ± 1		26.2 ± 5.1	59.7 ± 4.6%	5.38 ± 1.08	59 ± 4	44.7 ± 5.9			non-Phase I metabolic stability [15]: nonexistent; D3R Ant. (%) ([13]; antagonist mode): 100 ± 0%
Cc1cccc(NC(=O)CN2CCN(c3ncccn3)CC2)c1 [Compound 4]	26.83 ± 0.21	39.8 ± 2.16		29 ± 5		24.7 ± 5	80.6 ± 3.0%	7.93 ± 2.12	60 ± 4	58.4 ± 6.6	> 100000	> 10000	
Cc1cccc(NC(=O)CN2CCN(c3ccc(Cl)cn3)CC2)c1 [Compound 7]	9.51 ± 0.12	74.2 ± 4.56	2870 ± 817	110 ± 7	100 ± 0							> 50000	
Cc1cccc(NC(=O)CN2CCC(c3ccccn3)CC2)c1 [Compound 1, reference compound]					94.8 ± 2.8	22.5 ± 4.0	81.7 ± 2.7%				> 100000		EC50 ([13]; agonist mode): > 100000 nM
